Test system: anesthetized open-chest dogs
Assay: Hemodynamics of anesthetized open-chest dogs, intravenous infusion
Format: in vivo, mongrel dogs
Conditions: 0.3 mg/kg iv
Protocol: The animals were anesthetized by intravenous injection of 30 mg/kg sodium pentobarbital, tracheally intubated, and mechanically ventilated with positive air pressure. Left thoracotomy was performed through the fourth intercostal space and the heart was suspended in a pericardial cradle, the aortic root was isolated and a probe of blood flow meter (12 or 14 mm in diameter) was fixed to measure the aortic blood flow as a representation of cardiac output (CO), the circumflex branch of left coronary artery was isolated and a probe of blood flow meter (2 or 2.5 mm in diameter) was fixed to measure the coronary blood flow (CBF). A polyethylene catheter filled with heparin physiological saline was inserted through cardiac apex into the left ventricle to measure the left ventricular pressure (LVP) and left ventricular end-diastolic pressure (LVEDP), Peak positive and peak negative first derivatives of the LVP (+ LVdp/dt and − LVdp/dt) were calculated with the Acknowledge software. The systolic blood pressure (SBP), diastolic blood pressure (DBP) and mean arterial pressure (MAP) were measured by polyethylene catheter via the femoral artery, ECG □ was measured by a AC-601G ECG amplifier. The above-mentioned analog signal was input into a data acquisition workstation (MP100, BIOPAC Systems, USA) to a computer running Acknowledge (version 3.7.1).
After surgery, various indexes before administration were recorded until the indexes were stable, and then intravenous infusion administration was conducted. Thirty dogs were divided into five groups (six dogs in each group), the experiment groups were given 0.15, 0.3, 0.6 mg/kg of ASP-[…] respectively, the normal control group was given 1 ml/kg of solvent, and the positive control group was given 0.3 mg/kg of astragaloside IV. The delivery volumes were 15 ml for each dog was and the delivery velocity was 1 ml/min. The indexes were recorded at 5, 10, 15, 20, 30, 45, 60, 90 and 120 mins after drug administration. At the end of experiment, the hearts were excised and weighted. The myocardial blood flow for per hectogram (CF), coronary resistance (CR), cardiac index (CI), left ventricular work (LVW) and total peripheral resistance (TPR) were calculated according to the following formulae: CF=CBF×[…]/heart weight CR=MAP/CF CI=CO/0.11×(body weight)^2/3 LVW=CO×(MAP−5)×1.052×0.0136 TPR=MAP×79.92/CO
Data are expressed as mean±SD ( x±s), the paired t-test was used to compare the significance between before and after administration, the unpaired t-test was adopted for comparison between groups.

CC(C)(O)[C@@H]1CC[C@](C)([C@H]2[C@@H](O)C[C@@]3(C)[C@@H]4C[C@H](O[C@@H]5O[C@H](CO)[C@@H](O)[C@H](O)[C@H]5O)[C@H]5C(C)(C)[C@@H](O[C@@H]6OC[C@@H](O)[C@H](O)[C@H]6O)CC[C@@]56C[C@@]46CC[C@]23C)O1 [astragaloside IV, reference compound]
TPR (30 min after administration): 5430 ± 1302 dyn · s/cm^5
TPR change vs before administration (30 min after administration): (206 ± 718) dyn · s/cm^5
dp/dt (30 min after administration): 1140 ± 92 mmHg/s
dp/dt change vs before administration (30 min after administration): (85 ± 84) mmHg/s
−dp/dt (30 min after administration): −807 ± 124 mmHg/s
−dp/dt change vs before administration (30 min after administration): (28 ± 160) mmHg/s
CF (45 min after administration): 54.0 ± 15.0 ml/min/100 g
CF change vs before administration (45 min after administration): (−2.9 ± 7.7) ml/min/100 g
CI (45 min after administration): 2.08 ± 0.52 L/min/m^2
CI change vs before administration (45 min after administration): (−0.06 ± 0.19) L/min/m^2
CO (45 min after administration): 1.17 ± 0.32 L/min
CO change vs before administration (45 min after administration): (−0.03 ± 0.10) L/min
CR (45 min after administration): 1.44 ± 0.50 mmHg/ml/min/100 g
CR change vs before administration (45 min after administration): (0.04 ± 0.25) mmHg/ml/min/100 g
LVEDP (45 min after administration): 0.9 ± 2.1 mmHg
LVEDP change vs before administration (45 min after administration): (−1.55 ± 1.42) mmHg
LVP (45 min after administration): 98 ± 10 mmHg
LVP change vs before administration (45 min after administration): (−4.5 ± 11.7) mmHg
LVW (45 min after administration): 1.14 ± 0.40 kg · m
LVW change vs before administration (45 min after administration): (−0.07 ± 0.11) kg · m
TPR (45 min after administration): 5301 ± 1638 dyn · s/cm^5
TPR change vs before administration (45 min after administration): (77 ± 552) dyn · s/cm^5
dp/dt (45 min after administration): 1124 ± 163 mmHg/s
dp/dt change vs before administration (45 min after administration): (69 ± 73) mmHg/s
−dp/dt (45 min after administration): −809 ± 137 mmHg/s
−dp/dt change vs before administration (45 min after administration): (26 ± 159) mmHg/s
CF (60 min after administration): 53.7 ± 18.1 ml/min/100 g
CF change vs before administration (60 min after administration): (−3.3 ± 5.1) ml/min/100 g
CI (60 min after administration): 2.10 ± 0.53 L/min/m^2
CI change vs before administration (60 min after administration): (−0.05 ± 0.11) L/min/m^2
CO (60 min after administration): 1.18 ± 0.34 L/min
CO change vs before administration (60 min after administration): (−0.02 ± 0.06) L/min
CR (60 min after administration): 1.51 ± 0.64 mmHg/ml/min/100 g
CR change vs before administration (60 min after administration): (0.10 ± 0.23) mmHg/ml/min/100 g
LVEDP (60 min after administration): 0.8 ± 1.7 mmHg
LVEDP change vs before administration (60 min after administration): (−1.57 ± 1.39) mmHg
LVP (60 min after administration): 98 ± 11 mmHg
LVP change vs before administration (60 min after administration): (−5.3 ± 15.3) mmHg
LVW (60 min after administration): 1.16 ± 0.47 kg · m
LVW change vs before administration (60 min after administration): (−0.05 ± 0.09) kg · m
TPR (60 min after administration): 5278 ± 1714 dyn · s/cm^5
TPR change vs before administration (60 min after administration): (54 ± 458) dyn · s/cm^5
dp/dt (60 min after administration): 1098 ± 192 mmHg/s
dp/dt change vs before administration (60 min after administration): (43 ± 77) mmHg/s
−dp/dt (60 min after administration): −788 ± 126 mmHg/s
−dp/dt change vs before administration (60 min after administration): (48 ± 177) mmHg/s
CF (90 min after administration): 57.4 ± 19.0 ml/min/100 g
CF change vs before administration (90 min after administration): (0.4 ± 9.5) ml/min/100 g
CI (90 min after administration): 2.15 ± 0.52 L/min/m^2
CI change vs before administration (90 min after administration): (0.01 ± 0.08) L/min/m^2
CO (90 min after administration): 1.21 ± 0.32 L/min
CO change vs before administration (90 min after administration): (0.00 ± 0.05) L/min
CR (90 min after administration): 1.43 ± 0.83 mmHg/ml/min/100 g
CR change vs before administration (90 min after administration): (0.02 ± 0.51) mmHg/ml/min/100 g
LVEDP (90 min after administration): 1.4 ± 0.5 mmHg
LVEDP change vs before administration (90 min after administration): (−0.97 ± 0.77) mmHg
LVP (90 min after administration): 99 ± 15 mmHg
LVP change vs before administration (90 min after administration): (−4.2 ± 18.7) mmHg
LVW (90 min after administration): 1.14 ± 0.44 kg · m
LVW change vs before administration (90 min after administration): (−0.07 ± 0.08) kg · m
TPR (90 min after administration): 4952 ± 1517 dyn · s/cm^5
TPR change vs before administration (90 min after administration): (−272 ± 349) dyn · s/cm^5
dp/dt (90 min after administration): 1100 ± 160 mmHg/s
dp/dt change vs before administration (90 min after administration): (45 ± 73) mmHg/s
−dp/dt (90 min after administration): −762 ± 139 mmHg/s
−dp/dt change vs before administration (90 min after administration): (74 ± 184) mmHg/s
CF (120 min after administration): 55.6 ± 19.7 ml/min/100 g
CF change vs before administration (120 min after administration): (−1.4 ± 11.1) ml/min/100 g
CI (120 min after administration): 2.14 ± 0.50 L/min/m^2
CI change vs before administration (120 min after administration): (0.00 ± 0.06) L/min/m^2
CO (120 min after administration): 1.20 ± 0.30 L/min
CO change vs before administration (120 min after administration): (0.00 ± 0.03) L/min
CR (120 min after administration): 1.51 ± 0.82 mmHg/ml/min/100 g
CR change vs before administration (120 min after administration): (0.11 ± 0.41) mmHg/ml/min/100 g
LVEDP (120 min after administration): 1.8 ± 0.8 mmHg
LVEDP change vs before administration (120 min after administration): (−0.66 ± 0.47) mmHg
LVP (120 min after administration): 97 ± 14 mmHg
LVP change vs before administration (120 min after administration): (−5.5 ± 19.3) mmHg
LVW (120 min after administration): 1.17 ± 0.45 kg · m
LVW change vs before administration (120 min after administration): (−0.04 ± 0.05) kg · m
TPR (120 min after administration): 5046 ± 1440 dyn · s/cm^5
TPR change vs before administration (120 min after administration): (−178 ± 394) dyn · s/cm^5
dp/dt (120 min after administration): 1088 ± 182 mmHg/s
dp/dt change vs before administration (120 min after administration): (33 ± 59) mmHg/s
−dp/dt (120 min after administration): −748 ± 167 mmHg/s
−dp/dt change vs before administration (120 min after administration): (88 ± 215) mmHg/s
CF (before administration): 57 ± 16.1 ml/min/100 g
CI (before administration): 2.14 ± 0.52 L/min/m^2
CO (before administration): 1.20 ± 0.32 L/min
CR (before administration): 1.40 ± 0.49 mmHg/ml/min/100 g
LVEDP (before administration): 2.4 ± 1.1 mmHg
LVP (before administration): 103 ± 12 mmHg
LVW (before administration): 1.21 ± 0.44 kg · m
TPR (before administration): 5224 ± 1465 dyn · s/cm^5
dp/dt (before administration): 1055 ± 157 mmHg/s
−dp/dt (before administration): −836 ± 194 mmHg/s
Heart rate (vs pre-administration): decreased slightly
blood pressure (vs pre-administration): no significant change
CF and CR (within 120 min): no significant changes

Reference: US8835134B2, “Cycloastragenol monoglucoside, preparation, pharmaceutical composition and application thereof” (Tianjin Institute of Pharmaceutical Research, priority 2007, dated 2014)
